Ki data for two molecules are collected here from ChEMBL document CHEMBL1147743, “The first potent inhibitors for human glutaminyl cyclase: synthesis and structure-activity relationship” (J Med Chem, 2006).

The test concerns the target Glutaminyl-peptide cyclotransferase (Homo sapiens, UniProt Q16769). Description: Inhibitory activity against human glutaminyl cyclase.

Glutaminyl-peptide cyclotransferase, sequence (Q16769 whole entry): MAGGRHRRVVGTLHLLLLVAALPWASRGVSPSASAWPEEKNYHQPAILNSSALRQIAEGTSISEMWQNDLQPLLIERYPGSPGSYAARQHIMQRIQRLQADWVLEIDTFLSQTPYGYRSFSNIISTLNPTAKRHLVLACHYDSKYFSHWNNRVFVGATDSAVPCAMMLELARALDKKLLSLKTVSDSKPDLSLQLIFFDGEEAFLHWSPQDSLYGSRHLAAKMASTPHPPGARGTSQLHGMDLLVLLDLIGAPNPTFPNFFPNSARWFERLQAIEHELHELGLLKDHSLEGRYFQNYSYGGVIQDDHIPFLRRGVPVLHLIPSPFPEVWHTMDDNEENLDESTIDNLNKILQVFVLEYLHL

As for `S=C(NCCCn1ccnc1)NC1CCCCC1`, the Ki (commonly the dissociation constant of the complex between target and ligand, obtained from inhibition or displacement) is 4.7 µM.

The molecule `O=C1CNC(=S)N1CCCn1ccnc1` came in with an inhibition constant Ki of 0.7 µM.
